# Values of other authors, collected in patent US20190055521A1, “Methods Of Propagating Rhinovirus C In Previously Unsusceptible Cell Lines” (Wisconsin Alumni Research Foundation, priority 2014, published 2019).
# Where two headings read alike, the source gives them in different places.
# Columns and labels:
# RV-A [1] = details: unmodified HeLa cells; previously documented
# RV-B [2] = details: unmodified HeLa cells; previously documented
# RV-A [3] = details: unmodified HeLa cells; drug added to cells before infection; previously documented
# RV-B [4] = details: unmodified HeLa cells; drug added to cells before infection; previously documented
Structure (SMILES),inhibition of RV-A (RV-A [1]),inhibition of RV-B (RV-B [2]),inhibition of RV-A (RV-A [3]),inhibition of RV-B (RV-B [4])
Cc1cc(CCCOc2c(C)cc(-c3noc(C(F)(F)F)n3)cc2C)on1 [Pleconaril],inhibition,inhibition,,
CCOC(=O)/C=C/[C@H](C[C@@H]1CCNC1=O)NC(=O)[C@@H](CC(=O)[C@@H](NC(=O)c1cc(C)on1)C(C)C)Cc1ccc(F)cc1 [Rupintrivir],,,inhibition,inhibition
